# Experimental data: patent US8017656B2, “Organic sulfur compounds and use thereof” (Sumitomo Chemical Company, Limited, priority 2005, dated 2011)
# Where two headings read alike, the source gives them in different places.
# What was measured:
# Assay type in all cases: in vivo
# [1] = test system: Blattella germanica; test: Test Example 3: filter paper/sucrose bait test against German cockroach imagoes; details: for pest or weed control at 500 ppm: Blattella germanica, 144 h, read-out: rate of dead pests
# Procedure: (§1) On the bottom of a polyethylene cup having a diameter of 5.5 cm, a filter paper having the same diameter was laid, and 0.7 ml of the above test solution was added dropwise on the filter paper, followed by putting 30 mg of sucrose on it uniformly as a bait. Two male Blattella germanica imagoes were set free in the polyethylene cup and covered it with a lid. After 6 days, the number of surviving and dead Blattella germanica was examined and the rate of dead pests was calculated.
# [2] = test system: Culex pipiens pallens; test: Test Example 4: mosquito larvae test in treated water; details: 24 h, read-out: rate of dead pests
# Procedure: 0.7 ml of above test solution was added to 100 ml of ion exchanged water (active ingredient concentration: 3.5 ppm). Twenty last-instar larvae of Culex pipiens pallens were set free in the solution. After one day, the number of surviving and dead Culex pipiens pallens was examined and the rate of dead pests was calculated.
# [3] = test system: Musca domestica; test: Test Example 2: filter paper/sucrose bait test against housefly imagoes; details: read-out: rate of dead pests
# Procedure: as §1, with “Ten female Musca domestica” for “Two male Blattella germanica”, “24 hours,” for “6 days,”, “Musca domestica” for “Blattella germanica”
# [4] = 500 ppm test solution, 0.7 ml on filter paper with 30 mg sucrose, two male imagoes, after 6 days
# [5] = active ingredient concentration 3.5 ppm in water, twenty last-instar larvae, after one day
# [6] = 500 ppm test solution, 0.7 ml on filter paper with 30 mg sucrose, ten female imagoes, after 24 hours
SMILES,"pest or weed control at 500 ppm [1, 4] [%]","pest or weed control at 3.5 ppm [2, 5] [%]","pest or weed control at 500 ppm [3, 6] [%]",pest or weed control at 500 ppm [1] [%],pest or weed control at 3.5 ppm [2] [%],pest or weed control at 500 ppm ([3]; 24 h) [%],"rate of dead pests [1, 4] [%]"
CC(C#N)(CCC(F)(F)C(F)(F)F)[S+]([O-])CCC(F)(F)F (centres unmarked) [(57)],100,≥ 90,≥ 70,,,,
CN(C)C(=O)C(C)(CCC(F)(F)C(F)(F)F)S(=O)(=O)CCC(F)(F)F (centres unmarked) [(36)],100,≥ 90,≥ 70,,,,
CC(CCC(F)(F)C(F)(F)C(F)(F)F)(C(N)=O)S(=O)(=O)CCC(F)(F)C(F)(F)F (centres unmarked) [(56)],,,,100,≥ 90,≥ 70,
NC(=O)C(Cl)(CCC(F)(F)C(F)(F)C(F)(F)F)S(=O)(=O)CCC(F)(F)F (centres unmarked) [(84)],,,,100,≥ 90,≥ 70,
NC(=O)C(CCC(F)(F)C(F)(F)C(F)(F)F)S(=O)(=O)CCC(F)(F)C(F)(F)F (centres unmarked) [(55)],,,,100,,≥ 70,
COC(=O)C(CCC(F)(F)C(F)(F)F)S(=O)(=O)CCC(F)(F)F (centres unmarked) [(23)],100,≥ 90,≥ 70,,,,
CCCC(C#N)(CCC(F)(F)C(F)(F)F)S(=O)(=O)CCC(F)(F)F (centres unmarked) [(16)],100,≥ 90,≥ 70,,,,
CC(C)C(C#N)(CCC(F)(F)C(F)(F)F)S(=O)(=O)CCC(F)(F)F (centres unmarked) [(17)],100,≥ 90,≥ 70,,,,
COC(=O)C(CCCC(F)(F)F)S(=O)(=O)CCC(F)(F)F (centres unmarked) [(22)],,≥ 90,≥ 70,,,,
COC(=O)C(CCC(F)(F)C(F)(F)C(F)(F)F)S(=O)(=O)CCC(F)(F)C(F)(F)F (centres unmarked) [(95)],,,,,,≥ 70,
NC(=O)C(Cl)(CCC(F)(F)C(F)(F)C(F)(F)F)S(=O)(=O)CCC(F)(F)C(F)(F)F (centres unmarked) [(97)],,,,100,≥ 90,≥ 70,
COC(=O)C(CCC(F)(F)F)S(=O)(=O)CCC(F)(F)F (centres unmarked) [(76)],,≥ 90,,,,,
N#CC(CCC(F)(F)C(F)(F)C(F)(F)F)S(=O)(=O)CCC(F)(F)F (centres unmarked) [(5)],,,,100,≥ 90,≥ 70,
N#CC(CCC(F)(F)C(F)(F)F)SCCC(F)(F)F (centres unmarked) [(47)],,,,,,,100
CCOC(=O)C(C)(CCC(F)(F)C(F)(F)F)S(=O)(=O)CCC(F)(F)F (centres unmarked) [(46)],100,≥ 90,≥ 70,,,,
NC(=O)C(Cl)(CCC(F)(F)F)S(=O)(=O)CCC(F)(F)F (centres unmarked) [(81)],100,≥ 90,≥ 70,,,,
CCCNC(=O)C(C)(CCC(F)(F)C(F)(F)F)S(=O)(=O)CCC(F)(F)F (centres unmarked) [(40)],100,≥ 90,≥ 70,,,,
COC(=O)C(Cl)(CCCC(F)(F)C(F)(F)F)S(=O)(=O)CCC(F)(F)F (centres unmarked) [(102)],100,≥ 90,≥ 70,,,,
NC(=O)C(F)(CCC(F)(F)C(F)(F)F)S(=O)(=O)CCC(F)(F)C(F)(F)C(F)(F)F (centres unmarked) [(67)],,,,100,≥ 90,≥ 70,
COC(=O)C(C)(CCC(F)(F)C(F)(F)F)S(=O)(=O)CCC(F)(F)F (centres unmarked) [(26)],100,≥ 90,≥ 70,,,,
COC(=O)C(F)(CCC(F)(F)C(F)(F)C(F)(F)F)S(=O)(=O)CCC(F)(F)F (centres unmarked) [(90)],,,,100,≥ 90,≥ 70,
CC(C)NC(=O)C(C)(CCC(F)(F)C(F)(F)F)S(=O)(=O)CCC(F)(F)F (centres unmarked) [(41)],100,≥ 90,≥ 70,,,,
COC(=O)C(C)(CCC(F)(F)C(F)(F)F)S(=O)(=O)CCC(F)(F)C(F)(F)C(F)(F)F (centres unmarked) [(43)],,,,,,≥ 70,
CNC(=O)C(C)(CCC(F)(F)C(F)(F)F)S(=O)(=O)CCC(F)(F)F (centres unmarked) [(35)],100,≥ 90,≥ 70,,,,
COC(=O)C(C)(CCC(F)(F)C(F)(F)F)S(=O)(=O)CCC(F)(F)C(F)(F)F (centres unmarked) [(30)],100,≥ 90,≥ 70,,,,
CCC(CCC(F)(F)C(F)(F)F)(C(N)=O)S(=O)(=O)CCC(F)(F)F (centres unmarked) [(38)],100,≥ 90,≥ 70,,,,
